In US20100267561A1, “HERBICIDAL PYRIDAZINONE DERIVATIVES” (priority 2007, published 2010):

Tests used:
Format in all cases: in vivo
[1] = test system: barnyardgrass (Echinochloa crus-galli); experiment: Test B flooded paddy test plant response
Method in brief: (§1)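 Compounds were added directly to paddy water over 2-leaf-stage plants in pots flooded 3 cm above soil, water depth maintained. Visual injury scored against controls after 13 to 15 days in greenhouse, 0 (none) to 100 (complete control); dash indicates no result.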

[2] = test system: rice (Oryza sativa); experiment: Test B flooded paddy test plant response
Method in brief: as §1

[3] = test system: pigweed (Amaranthus retroflexus); experiment: Test B pre-/postemergence plant response
Method in brief: (§2)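 Seeds were sown and sprayed preemergence, while plants at 2 to 18 cm (1- to 4-leaf stage) got postemergence sprays. Compounds were formulated in a non-phytotoxic solvent mixture with surfactant. After 13 to 15 days in a greenhouse, injury was rated visually against untreated controls, 0 (no effect) to 100 (complete control).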

[4] = test system: wild oat (Avena fatua); experiment: Test B pre-/postemergence plant response
Method in brief: as §2

[5] = test system: eastern black (E.B.) nightshade (Solanum ptycanthum); experiment: Test B pre-/postemergence plant response; conditions: Preemergence; for Nightshade, E. B. plant response rating: scale 0 to 100
Method in brief: as §2

[6] = test system: downy bromegrass (Bromus tectorum); experiment: Test B pre-/postemergence plant response; conditions: for Bromegrass, Downy plant response rating: 8 g ai/ha
Method in brief: as §2

[7] = test system: Italian ryegrass (Lolium multiflorum); experiment: Test B pre-/postemergence plant response
Method in brief: as §2

[8] = test system: catchweed bedstraw (Galium aparine); experiment: Test B pre-/postemergence plant response; conditions: Preemergence; for Galium plant response rating: scale 0 to 100
Method in brief: as §2

[9] = test system: blackgrass (Alopecurus myosuroides); experiment: Test B pre-/postemergence plant response; conditions: for Blackgrass plant response rating: 8 g ai/ha
Method in brief: as §2

[10] = test system: common ragweed (Ambrosia elation); experiment: Test B pre-/postemergence plant response
Method in brief: as §2

[11] = test system: morningglory (Ipomoea coccinea); experiment: Test B pre-/postemergence plant response
Method in brief: as §2

[12] = test system: common (oilseed) sunflower (Helianthus annuus); experiment: Test B pre-/postemergence plant response; conditions: Preemergence; for Sunflower plant response rating: scale 0 to 100
Method in brief: as §2

[13] = test system: large crabgrass (Digitaria sanguinalis); experiment: Test B pre-/postemergence plant response
Method in brief: as §2

[14] = test system: johnsongrass (Sorghum halepense); experiment: Test B pre-/postemergence plant response
Method in brief: as §2

[15] = Flood (flooded paddy test), 62 g ai/ha, scale 0 to 100, 0 no effect, 100 complete control
[16] = Flood (flooded paddy test), 125 g ai/ha, scale 0 to 100, 0 no effect, 100 complete control
[17] = Flood (flooded paddy test), 250 g ai/ha, scale 0 to 100, 0 no effect, 100 complete control
[18] = Flood, 31 g ai/ha, scale 0 to 100
[19] = 8 g ai/ha, postemergence, 0-100 scale
[20] = 16 g ai/ha, postemergence, 0-100 scale
[21] = Postemergence, 31 g ai/ha, scale 0 to 100
[22] = Postemergence, 62 g ai/ha, scale 0 to 100, 0 no effect, 100 complete control
[23] = Preemergence, 31 g ai/ha, scale 0 to 100 (0 no effect, 100 complete control)
[24] = Preemergence, 62 g ai/ha, 0 to 100 scale, 0 no effect, 100 complete control
[25] = Preemergence, 8 g ai/ha, scale 0 to 100
[26] = Preemergence, 16 g ai/ha, scale 0 to 100
[27] = 31 g ai/ha, scale 0 to 100 (0 no effect, 100 complete control)
[28] = 62 g ai/ha, 0 to 100 scale, 0 no effect, 100 complete control
[29] = Postemergence, 16 g ai/ha, scale 0 to 100
[30] = Preemergence, 16 g ai/ha, scale 0 to 100 (0 no effect, 100 complete control)

CCc1cc(-c2ccc(C(F)(F)F)cc2)nn1-c1c(O)cnn(CC)c1=O [Compound 67]
Plant response rating, Barnyardgrass [1, 15]: 25 | Plant response rating, Barnyardgrass [1, 16]: 35 | Plant response rating, Barnyardgrass [1, 17]: 50 | Plant response rating, Barnyardgrass [1, 18]: 0 | Plant response rating, Rice [2, 15]: 0 | Plant response rating, Rice [2, 16]: 0 | Plant response rating, Rice [2, 17]: 15 | Plant response rating, Rice [2, 18]: 0 | Pigweed plant response rating [3, 19]: 0 | Pigweed plant response rating [3, 20]: 0 | Plant response rating, Pigweed [3, 21]: 0 | Plant response rating, Pigweed [3, 22]: 0 | Plant response rating, Pigweed [3, 23]: 0 | Plant response rating, Pigweed [3, 24]: 0 | Pigweed plant response rating [3, 25]: 0 | Pigweed plant response rating [3, 26]: 0 | Oat, Wild plant response rating [4, 19]: 100 | Oat, Wild plant response rating [4, 20]: 100 | Plant response rating, Oat, Wild [4, 21]: 100 | Plant response rating, Oat, Wild [4, 22]: 100 | Plant response rating, Oat, Wild [4, 23]: 95 | Plant response rating, Oat, Wild [4, 24]: 100 | Oat, Wild plant response rating [4, 25]: 90 | Oat, Wild plant response rating [4, 26]: 95 | Plant response rating, Nightshade, E. B. [5, 27]: 0 | Plant response rating, Nightshade, E. B. [5, 28]: 0 | Nightshade, E. B. plant response rating ([5]; 8 g ai/ha): 0 | Nightshade, E. B. plant response rating ([5]; 16 g ai/ha): 0 | Bromegrass, Downy plant response rating ([6]; postemergence, 0-100 scale): 55 | Plant response rating, Bromegrass, Downy [6, 29]: 80 | Plant response rating, Bromegrass, Downy [6, 21]: 80 | Plant response rating, Bromegrass, Downy [6, 22]: 100 | Plant response rating, Bromegrass, Downy [6, 30]: 90 | Plant response rating, Bromegrass, Downy [6, 23]: 100 | Plant response rating, Bromegrass, Downy [6, 24]: 100 | Bromegrass, Downy plant response rating ([6]; Preemergence, scale 0 to 100): 50 | Ryegrass, Italian plant response rating [7, 19]: 100 | Ryegrass, Italian plant response rating [7, 20]: 100 | Plant response rating, Ryegrass, Italian [7, 21]: 100 | Plant response rating, Ryegrass, Italian [7, 22]: 100 | Plant response rating, Ryegrass, Italian [7, 23]: 100 | Plant response rating, Ryegrass, Italian [7, 24]: 100 | Ryegrass, Italian plant response rating [7, 25]: 100 | Ryegrass, Italian plant response rating [7, 26]: 100 | Plant response rating, Galium [8, 27]: 0 | Plant response rating, Galium [8, 28]: 0 | Galium plant response rating ([8]; 8 g ai/ha): 0 | Galium plant response rating ([8]; 16 g ai/ha): 0 | Blackgrass plant response rating ([9]; postemergence, 0-100 scale): 85 | Plant response rating, Blackgrass [9, 29]: 100 | Plant response rating, Blackgrass [9, 21]: 100 | Plant response rating, Blackgrass [9, 22]: 100 | Plant response rating, Blackgrass [9, 30]: 100 | Plant response rating, Blackgrass [9, 23]: 100 | Plant response rating, Blackgrass [9, 24]: 100 | Blackgrass plant response rating ([9]; Preemergence, scale 0 to 100): 100 | Ragweed plant response rating [10, 19]: 0 | Ragweed plant response rating [10, 20]: 0 | Plant response rating, Ragweed [10, 21]: 0 | Plant response rating, Ragweed [10, 22]: 0 | Plant response rating, Ragweed [10, 24]: 0 | Morningglory plant response rating [11, 19]: 0 | Morningglory plant response rating [11, 20]: 0 | Plant response rating, Morningglory [11, 21]: 0 | Plant response rating, Morningglory [11, 22]: 0 | Plant response rating, Morningglory [11, 23]: 0 | Plant response rating, Morningglory [11, 24]: 0 | Morningglory plant response rating [11, 25]: 0 | Morningglory plant response rating [11, 26]: 0 | Plant response rating, Sunflower [12, 27]: 0 | Plant response rating, Sunflower [12, 28]: 0 | Sunflower plant response rating ([12]; 8 g ai/ha): 0 | Sunflower plant response rating ([12]; 16 g ai/ha): 0 | Crabgrass, Large plant response rating [13, 19]: 70 | Plant response rating, Crabgrass, Large [13, 29]: 98 | Plant response rating, Crabgrass, Large [13, 21]: 100 | Plant response rating, Crabgrass, Large [13, 22]: 100 | Plant response rating, Crabgrass, Large [13, 23]: 0 | Plant response rating, Crabgrass, Large [13, 24]: 0 | Crabgrass, Large plant response rating [13, 25]: 0 | Crabgrass, Large plant response rating [13, 26]: 0 | Johnsongrass plant response rating [14, 19]: 80 | Johnsongrass plant response rating [14, 20]: 98 | Plant response rating, Johnsongrass [14, 21]: 100 | Plant response rating, Johnsongrass [14, 22]: 100 | Plant response rating, Johnsongrass [14, 23]: 100 | Plant response rating, Johnsongrass [14, 24]: 100 | Johnsongrass plant response rating [14, 25]: 70 | Johnsongrass plant response rating [14, 26]: 90

Cc1cc(-c2ccc(Cl)cc2)nn1-c1c(OC(=S)N(C)C)cnn(C)c1=O [Compound 69]
Plant response rating, Barnyardgrass [1, 15]: 0 | Plant response rating, Barnyardgrass [1, 16]: 0 | Plant response rating, Barnyardgrass [1, 17]: 0 | Plant response rating, Barnyardgrass [1, 18]: 0 | Plant response rating, Rice [2, 15]: 0 | Plant response rating, Rice [2, 16]: 0 | Plant response rating, Rice [2, 17]: 0 | Plant response rating, Rice [2, 18]: 0 | Pigweed plant response rating [3, 19]: 0 | Pigweed plant response rating [3, 20]: 0 | Plant response rating, Pigweed [3, 21]: 0 | Plant response rating, Pigweed [3, 22]: 0 | Plant response rating, Pigweed [3, 23]: 0 | Plant response rating, Pigweed [3, 24]: 0 | Pigweed plant response rating [3, 25]: 0 | Pigweed plant response rating [3, 26]: 0 | Oat, Wild plant response rating [4, 19]: 20 | Oat, Wild plant response rating [4, 20]: 40 | Plant response rating, Oat, Wild [4, 21]: 90 | Plant response rating, Oat, Wild [4, 22]: 90 | Plant response rating, Oat, Wild [4, 23]: 20 | Plant response rating, Oat, Wild [4, 24]: 40 | Oat, Wild plant response rating [4, 25]: 0 | Oat, Wild plant response rating [4, 26]: 0 | Plant response rating, Nightshade, E. B. [5, 27]: 0 | Plant response rating, Nightshade, E. B. [5, 28]: 0 | Nightshade, E. B. plant response rating ([5]; 8 g ai/ha): 0 | Nightshade, E. B. plant response rating ([5]; 16 g ai/ha): 0 | Bromegrass, Downy plant response rating ([6]; postemergence, 0-100 scale): 0 | Plant response rating, Bromegrass, Downy [6, 29]: 0 | Plant response rating, Bromegrass, Downy [6, 21]: 15 | Plant response rating, Bromegrass, Downy [6, 22]: 45 | Plant response rating, Bromegrass, Downy [6, 30]: 0 | Plant response rating, Bromegrass, Downy [6, 23]: 0 | Plant response rating, Bromegrass, Downy [6, 24]: 0 | Bromegrass, Downy plant response rating ([6]; Preemergence, scale 0 to 100): 0 | Ryegrass, Italian plant response rating [7, 19]: 10 | Ryegrass, Italian plant response rating [7, 20]: 55 | Plant response rating, Ryegrass, Italian [7, 21]: 98 | Plant response rating, Ryegrass, Italian [7, 22]: 100 | Plant response rating, Ryegrass, Italian [7, 23]: 60 | Plant response rating, Ryegrass, Italian [7, 24]: 100 | Ryegrass, Italian plant response rating [7, 25]: 0 | Ryegrass, Italian plant response rating [7, 26]: 20 | Plant response rating, Galium [8, 27]: 0 | Plant response rating, Galium [8, 28]: 0 | Galium plant response rating ([8]; 8 g ai/ha): 0 | Galium plant response rating ([8]; 16 g ai/ha): 0 | Blackgrass plant response rating ([9]; postemergence, 0-100 scale): 10 | Plant response rating, Blackgrass [9, 29]: 35 | Plant response rating, Blackgrass [9, 21]: 35 | Plant response rating, Blackgrass [9, 22]: 90 | Plant response rating, Blackgrass [9, 30]: 0 | Plant response rating, Blackgrass [9, 23]: 40 | Plant response rating, Blackgrass [9, 24]: 70 | Blackgrass plant response rating ([9]; Preemergence, scale 0 to 100): 0 | Ragweed plant response rating [10, 19]: 0 | Ragweed plant response rating [10, 20]: 0 | Plant response rating, Ragweed [10, 21]: 0 | Plant response rating, Ragweed [10, 22]: 0 | Plant response rating, Ragweed [10, 23]: 100 | Plant response rating, Ragweed [10, 24]: 100 | Ragweed plant response rating [10, 25]: 0 | Ragweed plant response rating [10, 26]: 98 | Morningglory plant response rating [11, 19]: 0 | Morningglory plant response rating [11, 20]: 0 | Plant response rating, Morningglory [11, 21]: 0 | Plant response rating, Morningglory [11, 22]: 0 | Plant response rating, Morningglory [11, 23]: 0 | Plant response rating, Morningglory [11, 24]: 0 | Morningglory plant response rating [11, 25]: 0 | Morningglory plant response rating [11, 26]: 0 | Plant response rating, Sunflower [12, 27]: 0 | Plant response rating, Sunflower [12, 28]: 0 | Sunflower plant response rating ([12]; 8 g ai/ha): 0 | Sunflower plant response rating ([12]; 16 g ai/ha): 0 | Crabgrass, Large plant response rating [13, 19]: 55 | Plant response rating, Crabgrass, Large [13, 29]: 75 | Plant response rating, Crabgrass, Large [13, 21]: 98 | Plant response rating, Crabgrass, Large [13, 22]: 100 | Plant response rating, Crabgrass, Large [13, 23]: 0 | Plant response rating, Crabgrass, Large [13, 24]: 0 | Crabgrass, Large plant response rating [13, 25]: 0 | Crabgrass, Large plant response rating [13, 26]: 0 | Johnsongrass plant response rating [14, 19]: 60 | Johnsongrass plant response rating [14, 20]: 65 | Plant response rating, Johnsongrass [14, 21]: 70 | Plant response rating, Johnsongrass [14, 22]: 75 | Plant response rating, Johnsongrass [14, 23]: 0 | Plant response rating, Johnsongrass [14, 24]: 0 | Johnsongrass plant response rating [14, 25]: 0 | Johnsongrass plant response rating [14, 26]: 0
